Results on one compound are retold here after patent US12201626B2, “Bifunctional compositions for the treatment of cancer” (ARMACEUTICA, INC., priority 2018, dated 2025).

“Also recorded” adds a separate entry of the source.

In one assay the target is T1, topoisomerase II (Homo sapiens, UniProt P11388).
T1 construct: purchased TopoGen
The experiment in a line: TopoGen Topoisomerase II Assay Kit (kDNA decatenation). The settings on record: kDNA plus topoisomerase II; 5, 50, 500 μM PND. Type of assay: biochemical. The source says:
FIG. 3. Transcriptome analyses of possible pathways activated by pyronaridine (PND) and target validation. […] Pearson correlation analysis of the transcriptional signature of PND compared to the signatures deposited in LINCS project. Compounds marked correlate with the effects of PND, wherein darker the fill, the better the correlation. […] Lane 1, catenated kinetoplast DNA (kDNA); Lane 2, decatenated kDNA; Lane 3, linear kDNA; Lane 4, kDNA plus topoisomerase II; Lane 5, kDNA plus topoisomerase plus 5 μM of PND; Lane 6, kDNA plus topoisomerase plus 50 μM of PND; Lane 7, kDNA plus topoisomerase plus 500 μM of PND; Lane 8, kDNA plus topoisomerase II plus 1 mM etoposoide (Topo II inhibitor); Lane 9, kDNA plus topoisomerase ii plus PBS; 10, kDNA plus topoisomerase II plus DMSO.
In order to explore the possible Mechanism of Action (MoA) of PND, the transcriptome results for each cell line obtained were compared with the gene-expression data from the LINCS project (http://www.lincsproject.org), that contains the gene-expression profiles from various human cells treated with FDA-approved and withdrawn compounds as well as different well-characterized chemical reagents. It was reasoned that the expression profile of each lead compound should also induce a cellular gene expression response consistent with a known MoA of drugs deposited in LINCS. […]

Assay [1] has as its system HL-60 cells. Briefly: Phosphatidylserine externalization, annexin V-FITC/PI flow cytometry. Type of assay: cell-based, human. The settings on record: 24 h. How it is done: (§1) To determine whether cell death induced by PND was occurring through apoptosis or necrosis, MDA-MB-231 and HL-60 cells were stained with annexin V-FITC and PI and monitored via flow cytometry. Cells were seeded in 24-well plates at a density of 100,000 for adherent MDA-MB-231 and 200,000 HL-60 cells in 1 ml of culture media. After overnight incubation, cells were treated with PND, and incubated for an additional 24 h. For MDA-MB-231 cells, unattached cells were harvested in an ice-cold tube, while adhered cells were detached by using HyQtase (Thermo Fisher) and incubated for around 5 min at 37° C. Both unattached and detached cells harvested from each individual well were washed with ice-cold PBS and centrifuged at 260×g for 5 min. HL-60 were centrifuged directly after the incubation period as they grow in suspension. Cells were then stained with a mixture of annexin V-FITC and PI in 100 μl of binding buffer and incubated on ice in the dark for 15 minutes, following the manufacturer's instructions (Beckman Coulter). Lastly, the cells were resuspended by the addition of 400 μl of ice-cold binding buffer and analysed by flow cytometry (Cytomics FC500; Beckman Coulter). For this series of experiments, cells treated with PBS, as solvent control; treated with H2O2, as a positive control of cytotoxicity; and untreated were included and processed in parallel. For each sample, 10,000 events/cells were collected and analysed using CXP software (Beckman Coulter). Both the experimental samples and their controls were processed similarly and assessed in triplicate. The sum of both early and late stages of apoptosis was calculated to obtain the total percentage of apoptotic cells.
A general note: A flow cytometer gives signals particle by particle.

In assay [2] the test system is MDA-MB-231 cells. The description is as above. Particulars: 24 h. The format is cell-based, human. The protocol:
as §1

The test system of assay [3] is HL-60 cells. Briefly: Mitochondrial membrane potential, JC-1 flow cytometry. Type of assay: cell-based, human. The settings on record: 6 h; vs untreated and solvent treated cells. The protocol:
(§2) After treatment, the cells were harvested and stained with 2 μM of the fluorophore 5,5′,6,6′-tetrachloro-1,1′,3,3′-tetraethylbenzimidazolylcarbocyanine iodide (JC-1) following manufacturer's instructions (MitoProbe; Life Technologies, Grand Island, NY, USA). Cells with healthy polarized mitochondria favour JC-1 to form aggregates, which emit a red signal. […] Similar controls as above were concurrently analysed. Data acquisition and analysis were achieved by using CXP software (Beckman Coulter). Each data point was analysed in triplicate.

The test system of assay [4] is MDA-MB-231 cells. Described as above. The format is cell-based, human. Particulars: 6 h; vs untreated and solvent treated cells. The protocol: as §2
A further assay concerns Calf Thymus DNA. The experiment in a line: Circular dichroism spectroscopy. The format is binding. The settings on record: PND/DNA molar ratios 0.03-0.3; 30 min and 20 h. The protocol:
Circular dichroism (CD) spectra measurements were taken in a JASCO-1100 spectropolarimeter equipped with a Xenon lamp (JASCO, Easton, MD). CT DNA and buffers were purchased from Sigma Aldrich. A CT DNA stock solution was prepared in Tris/HCl buffer (5 mM Tris/HCl, 50 mM NaCl, pH=7.39) and its concentration (4.325 mM) was spectrophotometrically determined using molar extinction coefficient 6600 M−1 cm−1 at 260 nm. A 150 μM dilution in Tris/HCl buffer was prepared and used for the experiments. A 2.0 mM stock solution of PND was freshly prepared in MQ water prior to use. The appropriate volume of this solution was added to 3 ml working solutions of 150 μM CT DNA to achieve molar ratios of 0.03, 0.06, 0.2 and 0.3 PND/DNA. Samples were prepared in triplicate and incubated for 30 minutes and 20 hours. All CD spectra of DNA and DNA/PND were recorded at 25° C. over the range 205-380 nm and finally corrected with a blank and noise reduction. The final data is the average of three experiments and it is expressed in millidegrees (mdegs).

T1 sequence (P11388 whole entry): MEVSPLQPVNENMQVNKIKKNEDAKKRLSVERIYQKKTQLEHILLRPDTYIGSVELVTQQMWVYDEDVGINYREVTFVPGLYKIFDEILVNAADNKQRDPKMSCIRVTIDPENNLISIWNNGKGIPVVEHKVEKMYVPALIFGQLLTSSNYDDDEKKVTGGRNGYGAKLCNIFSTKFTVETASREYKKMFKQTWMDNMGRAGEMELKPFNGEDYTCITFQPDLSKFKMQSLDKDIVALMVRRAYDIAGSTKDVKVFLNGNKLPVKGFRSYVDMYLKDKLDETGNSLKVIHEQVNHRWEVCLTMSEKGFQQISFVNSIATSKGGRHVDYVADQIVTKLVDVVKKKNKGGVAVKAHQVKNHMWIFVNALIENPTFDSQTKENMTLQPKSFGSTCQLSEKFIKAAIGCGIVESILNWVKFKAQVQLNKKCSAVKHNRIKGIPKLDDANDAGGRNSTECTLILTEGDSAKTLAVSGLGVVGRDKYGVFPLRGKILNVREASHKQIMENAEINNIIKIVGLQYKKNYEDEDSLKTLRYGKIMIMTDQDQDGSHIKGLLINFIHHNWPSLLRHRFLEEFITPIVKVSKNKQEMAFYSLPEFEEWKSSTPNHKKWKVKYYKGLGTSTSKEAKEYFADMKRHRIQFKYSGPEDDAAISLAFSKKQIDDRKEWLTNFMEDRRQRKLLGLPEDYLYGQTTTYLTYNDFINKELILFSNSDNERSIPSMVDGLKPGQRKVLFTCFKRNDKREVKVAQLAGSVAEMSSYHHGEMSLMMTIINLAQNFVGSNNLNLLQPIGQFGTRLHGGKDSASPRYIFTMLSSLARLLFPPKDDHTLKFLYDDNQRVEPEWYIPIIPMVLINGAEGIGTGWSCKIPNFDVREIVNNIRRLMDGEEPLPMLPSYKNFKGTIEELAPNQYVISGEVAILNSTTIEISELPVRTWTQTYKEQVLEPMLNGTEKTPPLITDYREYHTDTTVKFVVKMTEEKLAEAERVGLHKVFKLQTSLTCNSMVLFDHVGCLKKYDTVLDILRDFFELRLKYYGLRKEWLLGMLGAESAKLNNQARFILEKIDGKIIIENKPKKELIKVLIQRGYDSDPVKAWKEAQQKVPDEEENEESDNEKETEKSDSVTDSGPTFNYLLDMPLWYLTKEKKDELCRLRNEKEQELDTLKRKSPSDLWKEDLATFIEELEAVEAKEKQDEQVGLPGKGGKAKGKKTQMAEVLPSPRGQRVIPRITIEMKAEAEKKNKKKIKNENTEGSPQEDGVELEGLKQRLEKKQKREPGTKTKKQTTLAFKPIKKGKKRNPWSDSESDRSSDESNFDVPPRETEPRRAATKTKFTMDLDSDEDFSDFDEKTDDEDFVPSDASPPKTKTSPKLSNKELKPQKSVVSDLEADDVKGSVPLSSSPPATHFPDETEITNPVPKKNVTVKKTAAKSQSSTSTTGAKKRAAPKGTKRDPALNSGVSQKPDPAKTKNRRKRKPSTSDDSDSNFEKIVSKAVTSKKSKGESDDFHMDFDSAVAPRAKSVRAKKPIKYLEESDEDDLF

As to `COC1=CC=C2Nc3cc(Cl)ccc3C(N=C3C=C(CN4CCCC4)C(=O)C(CN4CCCC4)=C3)=C2N1` [PND, 4-[(7-chloro-2-methoxy-1,5-dihydrobenzo[b][1,5]naphthyridin-10-yl)imino]-2,6-bis(pyrrolidin-1-ylmethyl)cyclohexa-2,5-dien-1-one], the “inhibition of topoisomerase II activity” value at topoisomerase II is “activity of PND as a Topoisomerase inhibitor was confirmed; also recorded: inhibition of the topoisomerase II activity in a dose-dependent manner”. Further, the entries for the “apoptotic cells (PS externalization)” value in the assay on HL-60 cells [1] (34 μM) and in the assay on HL-60 cells [1] (68 μM) were 14.8% and 30.2%, respectively. For the same compound, the “annexin positive cells (PS externalization)” value turned out to be 67.2% in the assay with MDA-MB-231 cells [2] (11 μM) and 71.1% in the assay on MDA-MB-231 cells [2] (22 μM). Besides, the “mitochondrial depolarization (Δψm, JC-1)” value in the assay on HL-60 cells [3] and with MDA-MB-231 cells [4] was “significant mitochondrial depolarization” in each case. In addition, in the assay with Calf Thymus DNA, the “change of CD spectra of CT DNA” value was “increase the intensity of both the negative and the positive bands”.
